Data reported in patent US20100129856A1, “Methods and Devices for Cell Signaling Under Pulse Stimulation” (priority 2008, published 2010).
No end group written: not given here.

Experiments:
PAR1 receptor = molecular target: T1, PAR1 receptor (Homo sapiens, UniProt P25116); experiment: Microfluidics-RWG biosensor DMR assay of A549 cells with PAR1 agonists; format: cell-based; settings: for EC100: DMR; for Reversibility of the triggered cellular response: agonist removed after 30 min; for Response of pre-treated cells to second stimulation with 10 unit/ml thrombin: first exposure 30 min (SFLLR-amide 10 μM or thrombin 5 unit/ml), HBSS ~2 hours, then thrombin, FIG. 10; for P-DMR signal maximal amplitude (shift in resonant wavelength): thrombin 5 unit/ml, SFLLR-amide 10 μM, constant flow 1 microliter per min, FIG. 9
T1 construct: triggered an almost indistinguishable DMR signal in A549 cells; host or cells: A549 (human lung carcinoma), not starved
T1 sequence (P25116 22-425): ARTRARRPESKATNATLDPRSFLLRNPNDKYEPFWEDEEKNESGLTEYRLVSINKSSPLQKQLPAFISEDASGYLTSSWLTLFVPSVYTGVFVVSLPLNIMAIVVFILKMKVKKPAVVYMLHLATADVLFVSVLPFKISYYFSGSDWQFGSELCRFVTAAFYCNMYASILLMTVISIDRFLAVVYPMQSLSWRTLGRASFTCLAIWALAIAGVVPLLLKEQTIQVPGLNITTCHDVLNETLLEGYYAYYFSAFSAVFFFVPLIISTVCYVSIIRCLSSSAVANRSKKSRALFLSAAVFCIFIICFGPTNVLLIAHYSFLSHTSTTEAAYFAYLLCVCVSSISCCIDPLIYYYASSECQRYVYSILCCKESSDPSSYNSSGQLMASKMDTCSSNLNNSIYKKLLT
Experimental: (§1) Cells were typically grown using ˜1 to 2×10^4 cells per well at passage 3 to 15 suspended in 50 μl of the corresponding culture medium in the biosensor microplate, and were cultured at 37° C. under air/5% CO2 for ˜1 day. Except for A431 which was subject to ˜20 hr starvation through continuously culture in the serum-free DMEM, the A459 cells were directly assayed without starvation. The confluency for all cells at the time of assays was ˜95% to 100%. For cell culture in the microfluidics-biosensor chamber systems, ˜4×10^4 cells suspended in 10 μl the medium containing 10% FBS were injected into the chamber, and were cultured at 37° C. under air/5% CO2 until ˜95% confluency was reached (˜1 day). To prevent drying during the culture, the biosensor device was maintained within a petri dish with a cover, and extra cell medium within the dish.
(§2) Label-free biosensor cell assays: Corning RWG (resonant waveguide grating) imaging system was used for label-free biosensor cell assays. The imaging system, based on swept wavelength interrogation, is capable of high resolution imaging, with a spatial resolution of 6 micron in the direction perpendicular to the propagation path of the coupled light, a resolution of about 150 or about 6 microns in the direction parallel to the propagation path of the coupled light. The cellular responses across the whole sensor were recorded in real time at each pixel (6 microns×6 microns). The cellular responses at defined locations or areas of the biosensor surface were averaged to generate responses of a population of cells within the detection area(s).
The A431 cells reached high confluency before assays, and were subject to starvation for overnight with serum free medium. For A549 cells, cells were grown to high confluency and used for assays without starvation. Before assays, the cell medium was replaced with 1× Hanks' balanced salt solution (HBSS) having 20 mM Hepes buffer, and incubated within the imaging system for about 1 hour. The chamber was filled with 6.6 micro-liters buffered solution. The HBSS buffer solution was initially introduced into the chamber from the inlet and flowed through the biosensor with a low flow rate (typically 1 μl/min or 1 microliter/min) using a controlled pump until a steady baseline was reached. Then, a first solution, typically a solution containing a receptor agonist or a compound dissolved in the HBSS buffer, was introduced by switching the valve, and flowed through the biosensor for a period of time (e.g., 1 min, or 5 min, or 30 min). Subsequently, the HBSS buffer solution was reintroduced and flowed through the biosensor to replace the first solution. After certain time period, a second solution, typically a solution containing a receptor agonist or a compound, either different or the same as the first solution, was introduced and flowed through the biosensor continuously to trigger a cellular response. The flow rate was typically relatively low (˜0.5 μ/min to 5 μl/min), such that no mechanical sensitive cellular responses were triggered, and the cellular responses observed were largely due to the chemical(s) in the solution. Different combinations of these steps can be applied, depending on the purpose of the assays. The cellular responses throughout the assays were recorded using the high resolution imaging system. Depending on the biosensor insert used, the biosensor has a dimension of 3 mm×3 mm or 2 mm×2 mm. The chamber dimension is a length of about 9 mm from the inlet to the outlet, a width of 5 mm, and a height of 100 microns from the sensor surface to the bottom surface of the chamber. The total volume of solution required to fill the chamber is about 6 micro-liters.
For biosensor cellular assays, a baseline was established first. All studies were carried out at controlled temperature (22° C.) and with three replicates for each measurement, unless specifically mentioned. […]

[1] = molecular target: T2, β2-adrenergic receptor (β2AR) (Homo sapiens, UniProt P07550); experiment: Buffer swapping RWG biosensor DMR assay (microplate) for long-acting agonism; format: cell-based
T2 construct: 2 nM epinephrine-induced DMR signal of quiescent A431 cells; host or cells: A431 (human epidermoid carcinoma), serum-starved (quiescent)
Experimental: Cells were typically grown using ˜1 to 2×10^4 cells per well at passage 3 to 15 suspended in 50 μl of the corresponding culture medium in the biosensor microplate, and were cultured at 37° C. under air/5% CO2 for ˜1 day. […] The confluency for all cells at the time of assays was ˜95% to 100%.

quiescent A431 cells = experiment: Microfluidics-RWG biosensor DMR assay under pulse or sustained stimulation; format: cell-based, human; settings: FIG. 8; for DMR signal under pulse stimulation compared with sustained epinephrine response: 2 min pulse, 2 nM epinephrine, 100 nM salbutamol, flow 1 microliter/min
Experimental: as §1, §2
The A431 cells reached high confluency before assays, and were subject to starvation for overnight with serum free medium. For A549 cells, cells were grown to high confluency and used for assays without starvation. Before assays, the cell medium was replaced with 1× Hanks' balanced salt solution (HBSS) having 20 mM Hepes buffer, and incubated within the imaging system for about 1 hour. […] The cellular responses throughout the assays were recorded using the high resolution imaging system. […]

[2] = quiescent A431 cells, pulse about 60 sec, 100 nM norepinephrine, 100 nM salbutamol, 100 nM salmeterol, FIG. 7b

T2 sequence (P07550 whole entry): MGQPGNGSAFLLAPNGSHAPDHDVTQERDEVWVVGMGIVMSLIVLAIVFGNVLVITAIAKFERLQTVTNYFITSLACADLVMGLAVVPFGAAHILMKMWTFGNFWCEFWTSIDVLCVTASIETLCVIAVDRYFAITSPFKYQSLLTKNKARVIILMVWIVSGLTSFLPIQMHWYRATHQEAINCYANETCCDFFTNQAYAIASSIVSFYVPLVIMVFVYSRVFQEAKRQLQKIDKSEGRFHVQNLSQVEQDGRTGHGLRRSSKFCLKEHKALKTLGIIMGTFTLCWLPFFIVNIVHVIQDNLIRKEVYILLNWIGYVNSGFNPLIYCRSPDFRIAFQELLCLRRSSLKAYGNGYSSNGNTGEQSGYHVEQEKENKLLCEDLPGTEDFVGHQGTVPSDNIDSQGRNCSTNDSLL

C[C@@H]1C[C@@H]([C@H](O)CC2CC(=O)NC(=O)C2)C(=O)[C@@H](C)C1 [cycloheximide]
Effect on the second thrombin response of thrombin-treated A549 cells (PAR1 receptor; 10 μM cycloheximide in every solution, data not shown): largely eliminated

CNC[C@H](O)c1ccc(O)c(O)c1 [epinephrine]
Response to second stimulation with 2 nM epinephrine after sustained pre-treatment ([1]; A431 cells pre-treated with 2 nM epinephrine under sustained stimulation, data not shown): completely desensitized | Long-acting or short-acting agonism at the β2AR ([1]; concluded from pulse stimulation through buffer swapping, quiescent A431 cells): short-acting agonist | Effect of pulse pre-treatment on the 2 nM epinephrine-induced DMR signal [1, 2]: little impact | Effect of pulse pre-treatment on the 2 nM epinephrine-induced DMR signal ([1]; quiescent A431 cells, pulse about 150 sec, 0.5 nM salmeterol, 1 nM CGP12177, 0.1 nM formeterol, FIG. 7a): did not cause the de-sensitization | DMR signal under sustained stimulation at slow flow rate (quiescent A431 cells; 2 nM epinephrine flowed throughout the assay, 1 microliter/min): comparable to that obtained using microplate-based sustained response | DMR signal under pulse stimulation compared with sustained epinephrine response (quiescent A431 cells): much smaller response

NC[C@H](O)c1ccc(O)c(O)c1 [norepinephrine]
Effect of pulse pre-treatment on the 2 nM epinephrine-induced DMR signal [1, 2]: little impact

CC(C)(C)NCC(O)c1ccc(O)c(CO)c1 (stereo not shown) [salbutamol]
DMR signal under pulse stimulation compared with sustained epinephrine response (quiescent A431 cells): much smaller response

SFLLR-amide (SFLLR-NH2; UniProt P25116 42-46, looked up, fragment)
EC100 (PAR1 receptor; A549 cells): 10 µM | Plateau level of DMR signal above the baseline after switching back to HBSS (PAR1 receptor; A549 cells, 10 μM agonist replaced with HBSS 30 min after stimulation, FIG. 9a): about 120 picometers | Reversibility of the triggered cellular response (PAR1 receptor; A549 cells): largely reversible | Response of pre-treated cells to second stimulation with 10 unit/ml thrombin (PAR1 receptor; A549 cells): still able to respond to the second stimulation with thrombin with slightly smaller amplitude | P-DMR signal maximal amplitude (shift in resonant wavelength) (PAR1 receptor; A549 cells): ~400 picometers

thrombin
EC100 (PAR1 receptor; A549 cells): 5 unit/ml | DMR signal after switching back to HBSS (PAR1 receptor; A549 cells, 5 unit/ml agonist replaced with HBSS 30 min after stimulation, FIG. 9b): still maintained elevated signal | Reversibility of the triggered cellular response (PAR1 receptor; A549 cells): largely irreversible | Response of pre-treated cells to second stimulation with 10 unit/ml thrombin (PAR1 receptor; A549 cells): only gave rise to a little response | P-DMR signal maximal amplitude (shift in resonant wavelength) (PAR1 receptor; A549 cells): ~400 picometers
